Experimental data reported in ChEMBL document CHEMBL4038308, “Lipophosphonoxins II: Design, Synthesis, and Properties of Novel Broad Spectrum Antibacterial Agents” (J Med Chem, 2017).
In brackets after ≈: the same amount, converted by molar mass. Activity calls are given as the source filed them. The rule behind the calls is not given here.

How the values were obtained:
[1] = Chemical stability of compound at 50 to 500 mg/L at pH 0.18 after 24 hrs at room temperature by LC-MS analysis; assay type: physicochemical; conditions: buffer, pH 0.18, 24 h
Pseudomonas aeruginosa [2] = test: Antibacterial activity against Pseudomonas aeruginosa CCM 3955 after 24 hrs by microdilution method; assay type: functional; conditions: CCM 3955, 24 h
Escherichia coli [3] = test: Antibacterial activity against Escherichia coli CCM 3954 after 24 hrs by microdilution method; assay type: functional; conditions: CCM 3954, 24 h
TERT-RPE1 [4] = test: Cytotoxicity against human RPE1 cells assessed as disruption of cell membrane integrity at >80 mg/L after 4 hrs by CytoTox-ONE-based assay; conditions: tert-rpe1, 4 h
Salmonella enteritidis = test: Antibacterial activity against Salmonella enteritidis S2-25 after 24 hrs by microdilution method; assay type: functional, Salmonella enterica subsp. enterica serovar Enteritidis; conditions: Salmonella enterica, S2-25, 24 h
[5] = Chemical stability of compound at 50 to 500 mg/L at pH 5 after 24 hrs at 37 degC by LC-MS analysis; assay type: physicochemical; conditions: buffer, pH 5, 24 h
BJ = test: Cytotoxicity against human BJ cells assessed as reduction in cell viability after 48 hrs by ATPlite reagent based assay
Pseudomonas aeruginosa [6] = test: Antibacterial activity against Pseudomonas aeruginosa 16575 after 24 hrs by microdilution method; assay type: functional; conditions: Pseudomonas aeruginosa, 16575, 24 h
[7] = test system: Stenotrophomonas maltophilia; test: Antibacterial activity against Stenotrophomonas maltophilia S2-23 after 24 hrs by microdilution method; assay type: functional; conditions: S2-23, 24 h
Escherichia coli [8] = test: Antibacterial activity against Escherichia coli 16702 after 24 hrs by microdilution method; assay type: functional; conditions: Escherichia coli, 16702, 24 h
[9] = Chemical stability of compound at 50 to 500 mg/L at pH 5 after 24 hrs at room temperature by LC-MS analysis; assay type: physicochemical; conditions: buffer, pH 5, 24 h
TERT-RPE1 [10] = test: Induction of apoptosis in human RPE1 cells assessed as caspase 3/7 activation up to 80 mg/L after 4 hrs by caspase-Glo 3/7 luminescent assay; assay type: cell-based; conditions: tert-rpe1, 4 h
Lipid bilayer [11] = test: Binding affinity to DOPG large unilamellar vesicle assessed as carboxyfluorescein leakage at 10 mg/L after 20 secs by fluorescence-based assay relative to control
[12] = Chemical stability of compound at 50 to 500 mg/L at pH 0.18 after 24 hrs at 37 degC by LC-MS analysis; assay type: physicochemical; conditions: buffer, pH 0.18, 24 h
HepG2 [13] = test: Induction of apoptosis in human HepG2 cells assessed as caspase 3/7 activation up to 80 mg/L after 4 hrs by caspase-Glo 3/7 luminescent assay; assay type: cell-based; conditions: hepg2, 4 h
Enterococcus faecalis = test: Antibacterial activity against Enterococcus faecalis CCM 4224 after 24 hrs by microdilution method; assay type: functional; conditions: CCM 4224, 24 h
Acinetobacter baumannii = test: Antibacterial activity against Acinetobacter baumannii A3-08 after 24 hrs by microdilution method; assay type: functional; conditions: A3-08, 24 h
HepG2 [14] = test: Cytotoxicity against human HepG2 cells assessed as reduction in cell viability after 48 hrs by ATPlite reagent based assay; conditions: hepg2, 48 h
[15] = Chemical stability of compound at 50 to 500 mg/L at pH 8.8 after 24 hrs at 37 degC by LC-MS analysis; assay type: physicochemical; conditions: buffer, pH 8.8, 24 h
Bacillus subtilis [16] = test: Antibacterial activity against Bacillus subtilis after 24 hrs by microdilution method; assay type: functional
Streptococcus agalactiae = test: Antibacterial activity against Streptococcus agalactiae after 24 hrs by microdilution method; assay type: functional
TERT-RPE1 [17] = test: Cytotoxicity against human RPE1 cells assessed as disruption of cell membrane integrity after 4 hrs by CytoTox-ONE-based assay; conditions: tert-rpe1, 4 h
Bacillus subtilis [18] = test: Antibacterial activity against Bacillus subtilis assessed as inhibition of RNA synthesis at 2 mg/L after 50 mins by [3H]-uridine incorporation assay; assay type: functional
Burkholderia multivorans = test: Antibacterial activity against Burkholderia multivorans after 24 hrs by microdilution method; assay type: functional
Staphylococcus aureus [19] = test: Antibacterial activity against methicillin-resistant Staphylococcus aureus 4591 clinical isolates after 24 hrs by microdilution method; assay type: functional; conditions: Staphylococcus aureus, 4591, 24 h
Lipid bilayer [20] = test: Binding affinity to DOPG large unilamellar vesicle assessed as carboxyfluorescein leakage at 10 ug/ml after 20 secs by fluorescence-based assay relative to control
[21] = test system: Staphylococcus haemolyticus; test: Antibacterial activity against fluoroquinolne-resistant Staphylococcus haemolyticus 16568 after 24 hrs by microdilution method; assay type: functional; conditions: Staphylococcus haemolyticus, 16568, 24 h
Enterococcus faecium = test: Antibacterial activity against vancomycin-resistant Enterococcus faecium 419/ana clinical isolates after 24 hrs by microdilution method; assay type: functional
[22] = Apparent permeability across apical to basolateral side in human Caco2 cells at 200 uM after 3 hrs by LC-MS analysis; assay type: ADME, cell-based; conditions: caco-2, 3 h
Staphylococcus aureus [23] = test: Antibacterial activity against Staphylococcus aureus CCM 4223 after 24 hrs by microdilution method; assay type: functional; conditions: CCM 4223, 24 h
HepG2 [24] = test: Cytotoxicity against human HepG2 cells assessed as disruption of cell membrane integrity after 4 hrs by CytoTox-ONE-based assay; conditions: hepg2, 4 h
[25] = test system: Staphylococcus epidermidis; test: Antibacterial activity against Staphylococcus epidermidis 8700/B after 24 hrs by microdilution method; assay type: functional
Lipid bilayer [26] = test: Binding affinity to DOPC large unilamellar vesicle assessed as carboxyfluorescein leakage at 10 to 20 ug/ml after 20 secs by fluorescence-based assay relative to control
TERT-RPE1 [27] = test: Cytotoxicity against human RPE1 cells assessed as reduction in cell viability after 48 hrs by ATPlite reagent based assay; conditions: tert-rpe1, 48 h
[28] = Chemical stability of compound at 50 to 500 mg/L at pH 8.8 after 24 hrs at room temperature by LC-MS analysis; assay type: physicochemical; conditions: buffer, pH 8.8, 24 h
Bacillus subtilis [29] = test: Antibacterial activity against Bacillus subtilis assessed as inhibition of plasma membrane lipids synthesis at 2 mg/L after 50 mins by [3H]-sodium acetate incorporation assay; assay type: functional
Bacillus subtilis [30] = test: Antibacterial activity against Bacillus subtilis assessed as inhibition of DNA synthesis at 2 mg/L after 50 mins by [3H]thymidine incorporation assay; assay type: functional
Bacillus subtilis [31] = test: Antibacterial activity against Bacillus subtilis assessed as inhibition of protein synthesis at 2 mg/L after 50 mins by [35S]-methionine incorporation assay; assay type: functional
Bacillus subtilis [32] = test: Antibacterial activity against Bacillus subtilis assessed as inhibition of peptidoglycan synthesis at 2 mg/L after 50 mins by [3H]-N-acetylglucosamine incorporation assay; assay type: functional

SMILES: CCCCCCCCCCCCCCCOP(=O)(CCN(CCCN)CCCN)OC[C@H]1O[C@@H](n2ccc(=O)[nH]c2=O)[C@H](O)[C@@H]1O (some centres undefined)
- Stability [1]: Stable
- MIC (Pseudomonas aeruginosa [2]): 3.13 µg/mL (≈ 4.63 µM)
- MIC (Escherichia coli [3]): 6.25 µg/mL (≈ 9.25 µM)
- Activity (TERT-RPE1 [4]): Non-Toxic
- MIC (Salmonella enteritidis): 6.25 µg/mL (≈ 9.25 µM)
- Stability [5]: Stable
- Activity (BJ): 29.1 mg/L
- MIC (Pseudomonas aeruginosa [6]): 6.25 µg/mL (≈ 9.25 µM)
- MIC [7]: 3.13 µg/mL (≈ 4.63 µM)
- MIC (Escherichia coli [8]): 25 µg/mL (≈ 37 µM)
- Stability [9]: Stable
- Activity (TERT-RPE1 [10]): Non-Toxic
- Activity (Lipid bilayer [11]): Active
- Stability [12]: Stable
- Activity (HepG2 [13]): Non-Toxic
- MIC (Enterococcus faecalis): 50 µg/mL (≈ 74 µM)
- MIC (Acinetobacter baumannii): 3.13 µg/mL (≈ 4.63 µM)
- Activity (HepG2 [14]): 33.2 mg/L
- Stability [15]: Stable
- MIC (Bacillus subtilis [16]): 3.13 µg/mL (≈ 4.63 µM)
- MIC (Streptococcus agalactiae): 1.56 µg/mL (≈ 2.31 µM)
- Activity (TERT-RPE1 [17]): 73.8 mg/L
- inhibition (Bacillus subtilis [18]): inactive
- MIC (Burkholderia multivorans): 50 µg/mL (≈ 74 µM)
- MIC (Staphylococcus aureus [19]): 1.56 µg/mL (≈ 2.31 µM)
- fold change (FC) (Lipid bilayer [20]): 25
- MIC [21]: 3.13 µg/mL (≈ 4.63 µM)
- MIC (Enterococcus faecium): 6.25 µg/mL (≈ 9.25 µM)
- permeability [22]: Impermeable
- MIC (Staphylococcus aureus [23]): 6.25 µg/mL (≈ 9.25 µM)
- Activity (HepG2 [24]): Non-Toxic
- MIC [25]: 3.13 µg/mL (≈ 4.63 µM)
- Activity (Lipid bilayer [26]): 20 to 35%
- Activity (TERT-RPE1 [27]): 34.8 mg/L
- Stability [28]: Stable
- inhibition (Bacillus subtilis [29]): inactive
- inhibition (Bacillus subtilis [30]): inactive
- inhibition (Bacillus subtilis [31]): inactive
- inhibition (Bacillus subtilis [32]): inactive
